Test results reported in US7524927B2, “Compositions, method and kits relating to deletion mutations of immunodeficiency virus gp120 hypervariable regions” (priority 2003, dated 2009).
Where two headings read alike, the source gives them in different places.

Legend:
[1] = molecular target: T1, CXCR4 (Homo sapiens, UniProt P61073); type: binding
T1 construct: expressed in transfected cells
Experimental: Western blot binding assay. […] In this assay, the gp120 of interest is added to cells expressing the desired coreceptor either in the absence or presence of sCD4. After binding for 30 min, the cells are washed, lysed, and bound gp120 detected by western blot.

[2] = tested on: VCP Env pseudotype; conditions: U87/CD4/CXCR4 target cells
Experimental: (§1) FIG. 9B is a diagram depicting AMD3100 sensitivity for viral pseudotypes containing the indicated Envs as indicated, i.e., VCP, V3(6,6); V1/V2, and V3(6,6). Sensitivity to AMD3100 was assessed using U87/CD4/CXCR4 target cells. Two different Env clones comprising deletion of V3(6,6) in combination with deletion of V1/V2 are depicted.

[3] = tested on: V3(6,6); V1/V2 Env pseudotypes; conditions: U87/CD4/CXCR4 target cells; two Env clones
Experimental: as §1

[4] = tested on: V3(6,6) Env pseudotype; conditions: U87/CD4/CXCR4 target cells
Experimental: as §1

[5] = tested on: HIV-2/VCP virus (wildtype VCP); experiment: microbe, parasite or virus in culture
Excerpt: (§2) Each virus was innoculated onto SupT1 cells in the presence of varying concentrations of AMD3100 (0, 10, 100, 1,000, and 10,000 nm as indicated).
(§3) This bicyclam specifically blocks CXCR4 function and its ability to serve as a receptor for X4 Envs by binding to two Asp residues at the base of the CXCR4 second and […] extracellular loops.

[6] = tested on: ΔV1/V2; ΔV3(6,6) virus; conditions: SupT1 cells
Excerpt: as §3

[7] = tested on: ΔV3(6,6) virus; conditions: SupT1 cells
Excerpt: as §2, §3

T1 sequence (P61073 whole entry): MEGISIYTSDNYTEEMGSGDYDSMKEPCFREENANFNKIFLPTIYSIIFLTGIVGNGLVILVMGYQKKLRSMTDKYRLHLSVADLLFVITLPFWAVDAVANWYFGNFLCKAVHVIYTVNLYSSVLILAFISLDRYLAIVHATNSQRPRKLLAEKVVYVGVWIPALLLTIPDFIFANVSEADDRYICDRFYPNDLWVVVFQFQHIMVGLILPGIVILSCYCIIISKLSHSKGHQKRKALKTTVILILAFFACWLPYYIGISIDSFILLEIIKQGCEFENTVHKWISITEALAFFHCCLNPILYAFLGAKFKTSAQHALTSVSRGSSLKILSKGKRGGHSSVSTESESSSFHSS

Compound: c1cc(CN2CCCNCCNCCCNCC2)ccc1CN1CCCNCCNCCCNCC1 [AMD3100]
- Inhibition of VCP gp120 binding to CXCR4-expressing cells [1]: inhibitable
- AMD3100 sensitivity of pseudotype [2]: sensitivity
- AMD3100 sensitivity of pseudotype [3]: complete resistance
- AMD3100 sensitivity of pseudotype [4]: complete resistance
- Sensitivity of virus to AMD3100 ([5]; 0, 10, 100, 1,000, and 10,000 nm AMD3100, SupT1 cells): sensitive
- IC50 ([5]; Human immunodeficiency virus 2, SUP-T1, read-out: IC50 for inhibition of infection of SupT1 cells): ~50 nM
- AMD3100 concentration at which virus could not be blocked [6]: greater than 10,000 nM
- Resistance of virus to AMD3100 ([7]; adapted (p16) virus, up to 10,000 nm AMD3100): completely resistant
- AMD3100 concentration at which virus could not be blocked ([7]; ΔV3(6,6) virus): greater than 10,000 nM

Compound: SDF-1: natural chemokine ligand of CXCR4 [reference compound]
- Inhibition of VCP gp120 binding to CXCR4-expressing cells ([1]; VCP gp120): inhibitable
